This assay concerns the target μ-opioid receptor (Homo sapiens (Human), UniProt P35372). Kind of assay: μ-opioid receptor [35S]GTPγS functional assay, HEK-293 cells (Table 6). Type of assay: biochemical. The following applies: for Emax: relative to DAMGO; for EC50: μ GTP. The method, then:
μ-Opioid Receptor Functional Assay Procedures: [^35S]GTPγS functional assays were conducted using freshly thawed μ-receptor membranes prepared in-house from a cell line expressing recombinant μ opioid receptor in a HEK-293, CHO or U-2 OS cell background, or purchased from a commercial source (Perkin Elmer, Shelton, Conn.; or DiscovRx, Fremont, Calif.). Assay reactions were prepared by sequentially adding the following reagents to binding buffer (100 mM NaCl, 10 mM MgCl2, 20 mM HEPES, pH 7.4) on ice (final concentrations indicated): membrane protein (0.026 mg/mL), saponin ([…]), GDP ([…]) and [^35S]GTPγS (0.20 nM; Perkin Elmer, Shelton, Conn.). The prepared membrane solution (190 μl/well) was transferred to 96-shallow well polypropylene plates containing 10 μl of 20× concentrated stock solutions of the agonist [D-Ala^2, N-methyl-Phe^4 Gly-ol^5]-enkephalin (DAMGO) prepared in dimethyl sulfoxide (DMSO). Plates were incubated for 30 min at about 25° C. with shaking Reactions were terminated by rapid filtration onto 96-well Unifilter GF/B filter plates (Perkin Elmer, Shelton, Conn.) using a 96-well tissue harvester (Perkin Elmer, Shelton, Conn.) followed by three filtration washes with 200 μl of ice-cold wash buffer (10 mM NaH2PO4, 10 mM Na2HPO4, pH 7.4). Filter plates were subsequently dried at 50° C. for 2-3 hours. BetaScint scintillation cocktail (Perkin Elmer, Shelton, Conn.) was added (50 μl/well) and plates were counted using a Packard Top-Count for 1 min/well. Data were analyzed using the sigmoidal dose-response curve fitting functions in GraphPad PRISM v. 3.0, or an in-house function for non-linear, sigmoidal dose-response curve-fitting. [^35S]GTPγS functional assays can also be conducted using freshly thawed μ-receptor membranes prepared from a cell line expressing recombinant μ opioid receptor in a CHO-K1 cell background.
μ GTP Emax (%) is the maximal effect elicited by a compound relative to the effect elicited by DAMGO, a standard μ agonist. Generally, the μ GTP Emax (%) value measures the efficacy of a compound to treat or prevent pain or other Conditions.
The following TABLE 6 provides results on the activity response of certain Compounds of the Invention at the μ- and κ-opioid receptors determined as described above using HEK-293 cells.
(In general: GTPγS is a poorly hydrolysed GTP analogue; its binding reports G protein activation.)

Molecules are shown by their SMILES.

As usually defined, the Emax is the greatest response seen or fitted, relative to the assay's reference. Broadly, the EC50 is the concentration needed to bring the measured effect to its halfway point. On to `NC(=O)c1ccc2c(c1)[C@]13CCN(CC4CC4)[C@H](C2)[C@]1(O)C[C@H](C(=O)NCCN1CCOCC1)C3` [Compound 118, (2R,3aS,4R,9bS)-12-(cyclopropylmethyl)-3a-hydroxy-N^2-(2-morpholinoethyl)-1,2,3,3a,4,5-hexahydro-4,9b-(epimino-ethano)cyclopenta[a]naphthalene-2,8-dicarboxamide], for which the Emax was found to be 13.2 ± 1.17% and a half-maximal effect (EC50) was put at 0.175 ± 0.0099 µM.
`NC(=O)c1ccc2c(c1)[C@]13CCN(CC4CC4)[C@H](C2)[C@]1(O)C[C@@H](C(=O)NCCN1CCOCC1)C3` [Compound 119, (2S,3aS,4R,9bS)-12-(cyclopropylmethyl)-3a-hydroxy-N^2-(2-morpholinoethyl)-1,2,3,3a,4,5-hexahydro-4,9b-(epimino-ethano)cyclopenta[a]naphthalene-2,8-dicarboxamide]: the Emax worked out at 18.4 ± 1.55% and the midpoint of the response, the EC50, lay at 0.0134 ± 0.00419 µM.
As for `Cc1ccc(CNC(=O)[C@@H]2C[C@]34CCN(CC5CC5)[C@H](Cc5ccc(C#N)cc53)[C@]4(O)C2)cc1` [Compound 120, (2R,3aS,4R,9bS)-8-cyano-12-(cyclopropylmethyl)-3a-hydroxy-N-(4-methylbenzyl)-1,2,3,3a,4,5-hexahydro-4,9b-(epiminoethano)cyclopenta-[a]naphthalene-2-carboxamide], the Emax was found to be 22.7 ± 1.92% and the EC50 stood at 0.631 ± 0.152 µM.
Turning to `Cc1ccc(CNC(=O)[C@H]2C[C@]34CCN(CC5CC5)[C@H](Cc5ccc(C#N)cc53)[C@]4(O)C2)cc1` [Compound 121, (2S,3aS,4R,9bS)-8-cyano-12-(cyclopropylmethyl)-3a-hydroxy-N-(4-methylbenzyl)-1,2,3,3a,4,5-hexahydro-4,9b-(epiminoethano)cyclopenta-[a]naphthalene-2-carboxamide], the Emax came to 29.3 ± 1.78% and a half-maximal response (EC50) required 1.09 ± 0.0702 µM.
With `N#Cc1ccc2c(c1)[C@]13CCN(CC4CC4)[C@H](C2)[C@]1(O)C[C@H](C(=O)NCCN1CCOCC1)C3` [Compound 122, (2R,3aS,4R,9bS)-8-cyano-12-(cyclopropylmethyl)-3a-hydroxy-N-(2-morpholinoethyl)-1,2,3,3a,4,5-hexahydro-4,9b-(epiminoethano)cyclopenta-[a]naphthalene-2-carboxamide], the Emax was found to be 0.33 ± 0.67%. This compound also displayed an EC50 (bound given in μM) of over 20 µM.
With `N#Cc1ccc2c(c1)[C@]13CCN(CC4CC4)[C@H](C2)[C@]1(O)C[C@@H](C(=O)NCCN1CCOCC1)C3` [Compound 123, (2S,3aS,4R,9bS)-8-cyano-12-(cyclopropylmethyl)-3a-hydroxy-N-(2-morpholinoethyl)-1,2,3,3a,4,5-hexahydro-4,9b-(epiminoethano)cyclopenta-[a]naphthalene-2-carboxamide], the Emax is 10.5 ± 1.07% and a half-maximal response (EC50) required 2.92 ± 0.378 µM.
As for `O=C(NCc1cccc(O)c1O)[C@@H]1C[C@]23CCN(CC4CC4)[C@H](Cc4ccc(O)cc42)[C@]3(O)C1` [Compound 124, (2R,3aS,4R,9bS)-12-(cyclopropylmethyl)-N-(2,3-dihydroxybenzyl)-3a,8-dihydroxy-1,2,3,3a,4,5-hexahydro-4,9b-(epimino-ethano)cyclopenta[a]naphthalene-2-carboxamide], the Emax amounted to 1.93 ± 2.93%. This compound came in with an EC50 (bound given in μM) of over 20 µM.
On to `Cc1c(Cl)cccc1CNC(=O)[C@@H]1C[C@]23CCN(CC4CC4)[C@H](Cc4ccc(O)cc42)[C@]3(O)C1` [Compound 125, (2R,3aS,4R,9bS)-N-(3-chloro-2-methylbenzyl)-12-(cyclopropylmethyl)-3a,8-dihydroxy-1,2,3,3a,4,5-hexahydro-4,9b-(epiminoethano)cyclopenta-[a]naphthalene-2-carboxamide], for which the Emax was -1%. The compound further gave an EC50 (bound given in μM) of over 20 µM.
`Cc1ccc(CNC(=O)[C@@H]2C[C@]34CCN(CC5CC5)[C@H](Cc5ccc(O)cc53)[C@]4(O)C2)cc1Cl` [Compound 126, (2R,3aS,4R,9bS)-N-(3-chloro-4-methylbenzyl)-12-(cyclopropylmethyl)-3a,8-dihydroxy-1,2,3,3a,4,5-hexahydro-4,9b-(epiminoethano)cyclopenta-[a]naphthalene-2-carboxamide]: the Emax was -1%. Where the note is “bound given in μM”, the half-maximal effective concentration (EC50) is over 20 µM.
The corresponding values for `O=C(NCc1ccc(O)cc1Cl)[C@@H]1C[C@]23CCN(CC4CC4)[C@H](Cc4ccc(O)cc42)[C@]3(O)C1` [Compound 127, (2R,3aS,4R,9bS)-N-(2-chloro-4-hydroxybenzyl)-12-(cyclopropylmethyl)-3a,8-dihydroxy-1,2,3,3a,4,5-hexahydro-4,9b-(epiminoethano)cyclopenta-[a]naphthalene-2-carboxamide] are -1% and over 20 µM.
Take `O=C(NCc1ccc(O)c(Cl)c1)[C@@H]1C[C@]23CCN(CC4CC4)[C@H](Cc4ccc(O)cc42)[C@]3(O)C1` [Compound 128, (2R,3aS,4R,9bS)-N-(3-chloro-4-hydroxybenzyl)-12-(cyclopropylmethyl)-3a,8-dihydroxy-1,2,3,3a,4,5-hexahydro-4,9b-(epiminoethano)cyclopenta-[a]naphthalene-2-carboxamide]: the Emax is -1%. The compound also had an EC50 (bound given in μM) of over 20 µM.
Consider `O=C(NCCc1ccc(Cl)cc1)[C@@H]1C[C@]23CCN(CC4CC4)[C@H](Cc4ccc(O)cc42)[C@]3(O)C1` [Compound 129, (2R,3aS,4R,9bS)-N-(4-chlorophenethyl)-12-(cyclopropylmethyl)-3a,8-dihydroxy-1,2,3,3a,4,5-hexahydro-4,9b-(epimino-ethano)cyclopenta[a]naphthalene-2-carboxamide], for which the Emax came out at 1%. Moreover, the EC50 (bound given in μM) is over 20 µM.
Regarding `O=C(NCCc1ccc(Cl)cc1Cl)[C@@H]1C[C@]23CCN(CC4CC4)[C@H](Cc4ccc(O)cc42)[C@]3(O)C1` [Compound 130, (2R,3aS,4R,9bS)-12-(cyclopropylmethyl)-N-(2,4-dichlorophenethyl)-3a,8-dihydroxy-1,2,3,3a,4,5-hexahydro-4,9b-(epiminoethano)cyclopenta[a]naphthalene-2-carboxamide], the Emax was determined as 0%. Also, the EC50 (bound given in μM) is over 20 µM.
For `O=C(NCCc1ccc(Cl)c(Cl)c1)[C@@H]1C[C@]23CCN(CC4CC4)[C@H](Cc4ccc(O)cc42)[C@]3(O)C1` [Compound 131, (2R,3aS,4R,9bS)-12-(cyclopropylmethyl)-N-(3,4-dichlorophenethyl)-3a,8-dihydroxy-1,2,3,3a,4,5-hexahydro-4,9b-(epiminoethano)cyclopenta[a]naphthalene-2-carboxamide], the Emax came to 1%. The same compound came in with an EC50 (bound given in μM) of over 20 µM.
The corresponding values for `CC(C)N1CCN(C(=O)[C@@H]2C[C@]34CCN(CC5CC5)[C@H](Cc5ccc(O)cc53)[C@]4(O)C2)CC1` [Compound 132, ((2R,3aS,4R,9bS)-12-(cyclopropylmethyl)-3a,8-dihydroxy-1,2,3,3a,4,5-hexahydro-4,9b-(epiminoethano)cyclopenta-[a]naphthalen-2-yl)(4-isopropylpiperazin-1-yl)methanone] are -1% and over 20 µM.
For the compound `O=C(NCCN1CCCCC1)[C@H]1C[C@]23CCN(CC4CC4)[C@H](Cc4ccc(O)cc42)[C@]3(O)C1` [Compound 133, (2S,3aS,4R,9bS)-12-(cyclopropylmethyl)-3a,8-dihydroxy-N-(2-(piperidin-1-yl)ethyl)-1,2,3,3a,4,5-hexahydro-4,9b-(epiminoethano)cyclopenta[a]naphthalene-2-carboxamide], the Emax is 29.8 ± 1.22% and the EC50 amounted to 0.0142 ± 0.00373 µM.
Regarding `C[C@@H]1CN(CCNC(=O)[C@@H]2C[C@]34CCN(CC5CC5)[C@H](Cc5ccc(O)cc53)[C@]4(O)C2)C[C@H](C)O1` [Compound 134, (2R,3aS,4R,9bS)-12-(cyclopropylmethyl)-N-(2-((2S,6R)-2,6-dimethylmorpholino)-ethyl)-3a,8-dihydroxy-1,2,3,3a,4,5-hexahydro-4,9b-(epiminoethano)-cyclopenta[a]naphthalene-2-carboxamide], the Emax was 9.53 ± 0.9% and the EC50 turned out to be 0.092 ± 0.0197 µM.
The corresponding values for `C[C@@H]1CN(CCNC(=O)[C@H]2C[C@]34CCN(CC5CC5)[C@H](Cc5ccc(O)cc53)[C@]4(O)C2)C[C@H](C)O1` [Compound 135, (2S,3aS,4R,9bS)-12-(cyclopropylmethyl)-N-(2-((2S,6R)-2,6-dimethylmorpholino)-ethyl)-3a,8-dihydroxy-1,2,3,3a,4,5-hexahydro-4,9b-(epiminoethano)cyclo-penta[a]naphthalene-2-carboxamide] are 19.7 ± 0.89% and 0.0103 ± 0.00103 µM.

The values above are taken from US9656962B2, “Ring-contracted morphinans and the use thereof” (Purdue Pharma L.P., priority 2013, dated 2017).
